Test results taken from patent publication US20210292306A1, “NOVEL INDOLE DERIVATIVE AND ANTI-CANCER CONPOSITION CONTAINING SAME” (KOREA RESEARCH INSTITUTE OF BIOSCIENCE AND BIOTECHNOLOGY, priority 2016, published 2021).

How the values were obtained:
MCF7/ADR = assay: Anti-proliferative activity in cancer cells showing multiple drug resistance (MTT assay); format: cell-based; conditions: ratio of IC50 MCF7/ADR to IC50 MCF7
Protocol: (§1) HeLa cells (ATCC, USA), which are a human cervical cancer cell line, were dispensed into a 96-well plate at 2×10^3 cells/well, and the cells were treated with DMSO or the indole derivatives of the present invention, and then allowed to grow for 4 days. And then, MTT (3-(4,5-Dimethylthiazol-2-yl)-2,5-diphenyltetrazolium bromide) reagent was added to the wells at 10 μl/well. After 2 hours, the absorbance was measured at “OD 450” and statistical values were obtained using the plizm6 program. The data represent mean values of the results of two repeated assays (Table 1). Specifically, K562 and MCF7 (Bio Evaluation Center, Korea Research Institute of Bioscience and Biotechnology, Korea), and K562/ADR and MCF7/ADR (Bio Evaluation Center, Korea Research Institute of Bioscience and Biotechnology, Korea), which are multiple drug-resistant cell lines of the above mentioned cell lines, respectively, were cultured on a microtiter plate at 1-3×10^3 cells/well.

K562/ADR = assay: as above; format: cell-based; conditions: ratio of IC50 K562/ADR to IC50 K562
Protocol: as §1

[1] = test system: human-derived skin cancer cell line (A431); assay: Anti-cancer effect in human-derived skin cancer cell (A431) implantation nude mouse model; format: in vivo, BALB/C female nude mouse; conditions: for tumor growth inhibition: day 23; for tumor weight reduction: excised A431 tumors weighed
Protocol: The human cancer cell line A431 which was kept frozen in liquid nitrogen was thawed and cell culture was conducted. Cells were cultured in a CO2 incubator (Forma, USA) at 37° C. and 5% CO2 for an appropriate period of time. On the last day of culture, all cancer cells were collected and counted and the cell concentration was adjusted to 1×10^7 cells/ml using serum free media. The culture solution thus prepared was injected subcutaneously in the axillary region between the scapula and chest wall in an amount of 0.3 ml per BALB/C female nude mouse (5 weeks old, Nara Biotech) (3×10^6 cells/mouse). […] To examine the toxicity levels of the repeated intraperitoneal administration of WCI-1031 to A431 cancer cell implantation nude mice, general symptoms and weight changes of the animals were observed during the administration period. […] On day 23 after the start of the drug administration, blood was taken from the mice through ophthalmic veins 2 hours after the last administration, and the mice were sacrificed using CO2 gas. Then the mice were photographed and the tumors was isolated and weighed in a chemical balance. After taking photographs, each tumor was divided in half, and the resultant tumors were fixed to liquid nitrogen and formalin, respectively.

Compound: COc1cccc2c1C(=O)c1c(O)c3c(c(O)c1C2=O)C[C@@](O)(C(=O)CO)C[C@@H]3O[C@H]1C[C@H](N)[C@H](O)[C@H](C)O1 [Doxorubicin, doxorubicin]
- Resistance factor (MCF7/ADR): 169.57
- Resistance factor (K562/ADR): 767.91

Compound: O=c1[nH]cc(F)c(=O)[nH]1 [Example 5-FU, 5-FU, reference compound]
- tumor growth inhibition ([1]; 5-FU 2 mg/ml at 10 ml/kg, days 0-2, 5-9, 12-16, 19-23, p<0.01): 20.7%
- tumor weight reduction ([1]; 5-FU 2 mg/ml at 10 ml/kg, p<0.05): 20.8%

Compound: CC(=O)O[C@H]1C(=O)[C@@]2(C)[C@H]([C@H](OC(=O)c3ccccc3)[C@]3(O)C[C@H](OC(=O)[C@H](O)[C@@H](NC(=O)c4ccccc4)c4ccccc4)C(C)=C1C3(C)C)[C@]1(OC(C)=O)CO[C@@H]1C[C@@H]2O [Taxol, taxol]
- Resistance factor (MCF7/ADR): 438.38
- Resistance factor (K562/ADR): 519.6

Compound: CC[C@]1(O)C[C@@H]2CN(CCc3c([nH]c4ccccc34)[C@@](C(=O)OC)(c3cc4c(cc3OC)N(C)[C@H]3[C@@](O)(C(=O)OC)[C@H](OC(C)=O)[C@]5(CC)C=CCN6CC[C@]43[C@@H]65)C2)C1 [Vinblastine, vinblastine]
- Resistance factor (MCF7/ADR): 18.17
- Resistance factor (K562/ADR): 15.63

Compound: COc1cc2c(c(OC)c1OC)-c1ccc(OC)c(=O)cc1[C@@H](NC(C)=O)CC2 [colchicine, reference compound]
- Resistance factor (MCF7/ADR): 34.15
- Resistance factor (K562/ADR): 22.91
- tumor growth inhibition ([1]; colchicine 0.07 mg/kg, days 0-23, p<0.05): 17.6%
- tumor weight reduction ([1]; colchicine 0.07 mg/kg, p<0.05): 17.6%
